Where two headings read alike, the source gives them in different places.
Legend:
Format in all cases: cell-based
rat α3β4 nAChRs = biological target: T1, rat α3β4 nAChRs (Rattus norvegicus, UniProt P04757+P12392); assay: Voltage-clamp recording in Xenopus oocytes expressing rat α3β4 nAChRs; details: for recovery of responses to ACh alone after co-application: 5 min washout
T1 construct: expressed in transfected cells; host or cells: Xenopus laevis oocytes injected with subunit cRNAs
Protocol: (§1) For recombinant nAChR studies, mature (>9 cm) female Xenopus laevis African frogs (Nasco, Ft. Atkinson, Wis.) were used as a source of oocytes. Prior to surgery, frogs were anesthetized by placing the animal in a 1.5 g/l solution of MS222 (3-aminobenzoic acid ethyl ester) for 30 min. Oocytes were removed from an incision made in the abdomen. All procedures involving frogs were approved by the University of Florida Institutional Animal Care and Use Committee (IACUC).
(§2) Stage 5 oocytes were then isolated and injected with 50 n1 (5-20 ng) each of the appropriate subunit cRNAs. The rat neuronal nAChR clones were obtained from Dr. Jim Boulter (UCLA, Los Angeles, Calif.). After linearization and purification of cloned cDNAs, RNA transcripts were prepared in vitro using the appropriate mMessage mMachine kit from Ambion (Austin, Tex.).
(§3) Experiments were conducted using OpusXpress 6000A (Molecular Devices, Union City Calif.). […] Net charge values were used to report inhibitory effects. […] Means and standard errors (SEM) were calculated from the normalized responses of at least four oocytes for each experimental concentration. Concentration-response data were fit to the Hill equation assuming negative Hill slopes.

rat α7 nAChRs = biological target: T2, rat α7 nAChRs (Rattus norvegicus, UniProt Q05941); assay: Voltage-clamp recording in Xenopus oocytes expressing rat α7 nAChRs; details: for Imax of ACh concentration-response in the presence of antagonist: ACh alone Imax=1; for recovery of responses to ACh alone after co-application: 5 min washout; for effect of voltage on inhibition of α7 receptors: −40 or −80 mV, 60 μM ACh; for inhibition at 1 µM: 1 μM tPyQB
T2 construct: expressed in transfected cells; host or cells: Xenopus laevis oocytes injected with subunit cRNA
T2 sequence (Q05941 23-502): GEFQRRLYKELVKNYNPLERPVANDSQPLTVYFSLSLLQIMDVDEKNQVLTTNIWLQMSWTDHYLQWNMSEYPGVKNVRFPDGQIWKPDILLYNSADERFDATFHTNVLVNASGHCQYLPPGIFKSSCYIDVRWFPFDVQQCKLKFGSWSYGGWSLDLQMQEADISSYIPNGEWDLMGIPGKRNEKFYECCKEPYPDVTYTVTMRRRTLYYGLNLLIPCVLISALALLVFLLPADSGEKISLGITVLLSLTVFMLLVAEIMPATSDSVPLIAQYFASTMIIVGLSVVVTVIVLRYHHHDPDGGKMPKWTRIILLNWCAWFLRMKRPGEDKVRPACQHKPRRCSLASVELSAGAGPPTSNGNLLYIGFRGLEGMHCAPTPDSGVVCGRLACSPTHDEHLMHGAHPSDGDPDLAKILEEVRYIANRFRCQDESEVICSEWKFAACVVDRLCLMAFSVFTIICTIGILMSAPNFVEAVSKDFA
Protocol: as §1, §2, §3

[1] = biological target: T3, native α7 receptors on rat hippocampal interneurons (Rattus norvegicus, UniProt Q05941); assay: Patch-clamp recording of ACh-evoked responses of hippocampal interneurons in brain slices; details: 1 μM bath-applied; for reduction of ACh-evoked responses: 1 mM ACh
T3 construct: Native α7 Receptors on Rat Hippocampal Interneurons; from tissue; host or cells: interneurons of CA1 stratum radiatum in fresh rat brain slices
T3 sequence (Q05941 23-502): as above
Protocol: (§4) All procedures involving rats were approved by the University of Florida IACUC and were in accord with the NIH Guide for the Care and Use of Laboratory Animals. Male Sprague Dawley rats (post-natal day 12-25) were anesthetized with Halothane (Halocarbon Laboratories, River Edge N.J.) and swiftly decapitated. Transverse ([…]) whole brain slices were prepared using a vibratome (Pelco, Redding, Calif.) and then placed in a high Mg^2+/low Ca^2+ ice-cold artificial cerebral spinal fluid (ACSF) containing (in mM) 124 NaCl, 2.5 KCl, 1.2 NaH2PO4, 2.5 MgSO4, 10 D-glucose, 1 CaCl2, and 25.9 NaHCO3, saturated with 95% O2-5% CO2. Slices were incubated at 30° C. for 30 minutes and then left at room temperature until they were transferred to a submersion chamber (Warner Instruments, Hamden, Conn.) for recording. During experiments, slices were perfused at a rate of 2 ml/min with normal ACSF containing (in mM) 126 NaCl, 3 KCl, 1.2 NaH2PO4, 1.5 MgSO4, 11 D-glucose, 2.4 CaCl2, 25.9 NaHCO3, and 0.004 atropine sulfate, saturated with 95% 02-5% CO2 at 30° C. Cells were visualized with infrared differential interference contrast microscopy using a Nikon E600FN microscope. Patch-clamp recording pipettes were pulled from borosilicate glass (Sutter Instruments, Novato, Calif.) using a Flaming/Brown micropipette puller (P-97; Sutter Instruments, Novato, Calif.). Recording pipettes were filled with an internal solution of (in mM) 125K-gluconate, 1 KCl, 0.1 CaCl2, 2 MgCl2, 1 EGTA, 2 MgATP, 0.3 Na3GTP, and 10 HEPES (pH adjusted to 7.3 with KOH). The resistance of the recording pipette when filled with the internal solution was 3-5 MΩ. Cells were held at −70 mV, and a −10 in V/10 ms test pulse was used to determine access resistance, input resistance, and whole-cell capacitance. Cells with access resistances >60 MΩ or those requiring holding currents >200 pA were not included in the final analyses. Signals were digitized using an Axon Digidata1322A and sampled at 20 kHz on a Dell computer using Clampex version 8 or 9. Data analysis was done with Clampfit version 8 or 9 (Axon Instruments, Union City, Calif.), Excel 2000 (Microsoft, Seattle, Wash.), and GraphPad/Prism version 4.02 (Graphpad Software, San Diego, Calif.). Data are reported as mean±SEM. Statistical analyses were performed using two-tailed Student's t-test and one-way analysis of variance (ANOVA).
(§5) Single-barrel pipettes were pulled from borosilicate glass with an outer diameter (o.d.) and inner diameter (i.d.) of 1.5 mm and 0.86 mm, respectively (Sutter Instrument, Novato, Calif.). Pipette opening size of the single barrel was typically 2-3 μm. Double-barrel pipettes were pulled from borosilicate theta glass with an o.d. of 1.5 mm; pipette opening size was around 3-4 μm. The application pipette was usually placed within 10-15 μm of the cell soma.
(§6) In experiments in which AQA analogs were bath-applied, for each cell, four ACh baseline-evoked responses were recorded before bath application of the antagonist. ACh-evoked responses were then recorded for 13-22 min in the presence of the AQA analog. Each analog was bath-applied at a final concentration of 1 μm. In some septum experiments, dihydro-β-erythroidine (DHβE) was also bath-applied at a final concentration of 1 μm.
Stable ACh-evoked responses were obtained from hippocampal interneurons in fresh brain slices and then applied 1 μM tPyQB, tPy2PiB, or tkP3BzPB to the bath. […]

rat α4β2 nAChRs = biological target: T4, rat α4β2 nAChRs (Rattus norvegicus, UniProt P09483+P12390); assay: Voltage-clamp recording in Xenopus oocytes expressing rat α4β2 nAChRs; details: for recovery of responses to ACh alone after co-application: 5 min washout
T4 construct: expressed in transfected cells; host or cells: Xenopus laevis oocytes injected with subunit cRNAs
T4 sequence (P09483 31-630): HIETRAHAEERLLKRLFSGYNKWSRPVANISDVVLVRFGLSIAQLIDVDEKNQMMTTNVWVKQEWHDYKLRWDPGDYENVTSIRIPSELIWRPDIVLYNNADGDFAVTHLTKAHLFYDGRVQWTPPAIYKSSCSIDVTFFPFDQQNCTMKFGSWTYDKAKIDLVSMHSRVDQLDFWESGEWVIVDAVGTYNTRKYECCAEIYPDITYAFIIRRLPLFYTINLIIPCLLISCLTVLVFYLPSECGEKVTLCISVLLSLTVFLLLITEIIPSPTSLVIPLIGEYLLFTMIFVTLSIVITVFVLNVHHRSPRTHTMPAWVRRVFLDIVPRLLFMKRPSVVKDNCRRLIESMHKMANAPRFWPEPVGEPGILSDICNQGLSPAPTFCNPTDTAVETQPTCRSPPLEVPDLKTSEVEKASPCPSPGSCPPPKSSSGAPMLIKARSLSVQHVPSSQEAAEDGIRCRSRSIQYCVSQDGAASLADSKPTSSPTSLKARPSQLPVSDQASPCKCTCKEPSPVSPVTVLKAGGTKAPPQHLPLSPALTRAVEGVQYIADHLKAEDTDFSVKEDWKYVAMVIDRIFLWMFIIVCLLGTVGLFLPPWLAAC
T4 sequence (P12390 25-500): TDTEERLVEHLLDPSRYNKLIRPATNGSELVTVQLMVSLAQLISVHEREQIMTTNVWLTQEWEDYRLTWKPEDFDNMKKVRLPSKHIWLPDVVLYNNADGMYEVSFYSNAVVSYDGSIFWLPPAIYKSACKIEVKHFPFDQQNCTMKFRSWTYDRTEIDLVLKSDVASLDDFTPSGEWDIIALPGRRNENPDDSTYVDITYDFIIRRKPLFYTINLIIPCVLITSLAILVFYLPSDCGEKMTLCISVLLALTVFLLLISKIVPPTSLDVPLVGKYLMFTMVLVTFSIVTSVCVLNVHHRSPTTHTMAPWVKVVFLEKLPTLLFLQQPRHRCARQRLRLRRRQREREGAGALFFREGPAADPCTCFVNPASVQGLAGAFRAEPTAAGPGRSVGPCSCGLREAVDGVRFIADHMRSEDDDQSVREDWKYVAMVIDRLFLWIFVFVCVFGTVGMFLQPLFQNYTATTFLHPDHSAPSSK
Protocol: as §1, §2, §3

[2] = system: Type II cells in rat medial septum; assay: Patch-clamp recording of ACh-evoked responses of medial septal neurons, Type II cells
Protocol: as §4, §5, §6
Neurons in rat medial septum vary in their nAChR-mediated responses. Some neurons (Type I cells) have relatively fast transient ACh-evoked responses, while others (Type II cells) have slower ACh-evoked responses (Thinschmidt et al., 2005a).

[3] = system: Type I cells in rat medial septum; assay: Patch-clamp recording of ACh-evoked responses of medial septal neurons, Type I cells
Protocol: as §4
Single-barrel pipettes were pulled from borosilicate glass with an outer diameter (o.d.) and inner diameter (i.d.) of 1.5 mm and 0.86 mm, respectively (Sutter Instrument, Novato, Calif.). […]
In experiments in which AQA analogs were bath-applied, for each cell, four ACh baseline-evoked responses were recorded before bath application of the antagonist. ACh-evoked responses were then recorded for 13-22 min in the presence of the AQA analog. […]

[4] = 1 mM ACh+300 μM tkP3BzPB pressure co-application

T1 sequence (P04757 26-499): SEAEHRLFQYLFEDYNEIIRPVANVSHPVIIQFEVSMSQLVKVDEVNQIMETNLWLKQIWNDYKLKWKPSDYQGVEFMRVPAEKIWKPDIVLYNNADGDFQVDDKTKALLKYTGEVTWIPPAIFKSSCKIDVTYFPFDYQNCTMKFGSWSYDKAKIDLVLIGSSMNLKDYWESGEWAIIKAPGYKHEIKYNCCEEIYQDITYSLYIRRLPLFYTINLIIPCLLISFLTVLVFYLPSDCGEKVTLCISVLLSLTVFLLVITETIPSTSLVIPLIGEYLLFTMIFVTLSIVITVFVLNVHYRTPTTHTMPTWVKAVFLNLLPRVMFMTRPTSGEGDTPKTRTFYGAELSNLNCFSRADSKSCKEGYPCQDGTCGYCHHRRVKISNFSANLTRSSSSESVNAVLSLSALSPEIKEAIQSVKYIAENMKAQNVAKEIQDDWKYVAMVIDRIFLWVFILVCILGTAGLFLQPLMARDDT
T1 sequence (P12392 21-495): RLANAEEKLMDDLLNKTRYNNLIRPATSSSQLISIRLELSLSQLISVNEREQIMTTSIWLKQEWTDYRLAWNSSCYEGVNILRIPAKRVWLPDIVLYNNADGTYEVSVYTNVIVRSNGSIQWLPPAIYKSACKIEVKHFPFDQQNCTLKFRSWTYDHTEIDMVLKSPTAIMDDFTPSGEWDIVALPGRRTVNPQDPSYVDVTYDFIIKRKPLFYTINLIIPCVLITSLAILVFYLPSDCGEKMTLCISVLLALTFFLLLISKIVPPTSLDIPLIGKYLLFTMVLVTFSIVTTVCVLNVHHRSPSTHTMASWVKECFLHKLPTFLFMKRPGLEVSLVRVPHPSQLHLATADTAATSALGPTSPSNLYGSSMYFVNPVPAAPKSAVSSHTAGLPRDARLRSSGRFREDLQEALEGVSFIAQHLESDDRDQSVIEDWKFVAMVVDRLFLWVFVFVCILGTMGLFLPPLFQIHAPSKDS

Cc1cccc[n+]1CCCC#Cc1cc(C#CCCC[n+]2ccccc2C)cc(C#CCCC[n+]2ccccc2C)c1 [tPy2PiB, 1,3,5,-tri-{5-[1-(2-picolinium)]-pent-1-yn-1-yl}benzene tribromide]
IC50 (rat α3β4 nAChRs): 10 ± 1.4 µM
recovery of responses to ACh alone after co-application (rat α3β4 nAChRs): recovered fully
inhibition of net charge responses (rat α7 nAChRs; 3 μM tPy2PiB, holding potential −40 mV): no significant inhibition
Imax of ACh concentration-response in the presence of antagonist (rat α7 nAChRs; 3 μM tPy2PiB, net charge): 0.84±0.02
recovery of responses to ACh alone after co-application (rat α7 nAChRs): recovered fully
IC50 (rat α7 nAChRs; read-out: IC50 values, α7): 6.3 ± 0.6 µM
inhibition at 3 µM (rat α7 nAChRs; read-out: inhibition of net charge responses, 3 μM tPy2PiB, holding potential −80 mV): 43 ± 3%
effect of voltage on inhibition of α7 receptors (rat α7 nAChRs): significant effect of voltage
reduction of ACh-evoked responses [1]: no significant reduction
IC50 (rat α4β2 nAChRs): 103 ± 25 µM
recovery of responses to ACh alone after co-application (rat α4β2 nAChRs): recovered fully

c1ccc(Cc2ccc[n+](CCCCCc3cc(CCCCC[n+]4cccc(Cc5ccccc5)c4)c(CCCCC[n+]4cccc(Cc5ccccc5)c4)cc3CCCCC[n+]3cccc(Cc4ccccc4)c3)c2)cc1 [tkP3BzPB, 1,2,4,5-tetra-{5-[1-(3-benzyl)pyridinium]pent-1-yl}benzenetetrabromide]
baseline response (peak amplitude) at the end of the application ([2]; 1 μM bath-applied): 59±1%
net-charge evoked response, of the baseline response, after bath application ([2]; 1 μM bath-applied): 79±2%
average baseline net charge response after co-application [2, 4]: 93±10%
average baseline peak response after co-application [2, 4]: 86±5%
IC50 (rat α3β4 nAChRs): 9.2 ± 1.2 µM
recovery of responses to ACh alone after co-application (rat α3β4 nAChRs): no significant residual inhibition
inhibition of 60 μM ACh-evoked responses (rat α7 nAChRs; 100 nM, typical co-application protocol): virtually no inhibition
use-dependence of persistent inhibition (rat α7 nAChRs; 3 μM for 20 s with or without 60 μM ACh, 5 minute washout): not use-dependent
recovery of responses to ACh alone after co-application (rat α7 nAChRs): decreasing recovery with increasing tkP3BzPB concentrations
recovery time constant (rat α7 nAChRs; after 1 μM co-applied with 60 μM ACh): 26.6 ± 0.8 min
IC50 (rat α7 nAChRs; after 5 minutes wash following application at increasing concentrations, read-out: IC50 estimated for recovery data): 1.9 ± 0.7 µM
time constant of recovery (rat α7 nAChRs; after application of 3 μM alone, repeated applications of 60 μM ACh): 76 ± 3 min
inhibition at 0.1 µM (rat α7 nAChRs; read-out: inhibition of the ACh-evoked responses): ~80%
IC50 (rat α7 nAChRs; simple co-application with 60 μM ACh, net charge, read-out: IC50 values, α7): 1 ± 0.1 µM
effect of voltage on inhibition of α7 receptors (rat α7 nAChRs): no significant difference
reduction of ACh-evoked responses [1]: effectively reduced
baseline net charge response remaining after bath application ([1]; 1 mM ACh pressure application): 0.4±0.7%
baseline peak response remaining after bath application ([1]; 1 mM ACh pressure application): 4±0.2%
IC50 (rat α4β2 nAChRs): 48 ± 11 µM
recovery of responses to ACh alone after co-application (rat α4β2 nAChRs): no significant residual inhibition
initial evoked response remaining (peak amplitude) after bath application ([3]; 1 μM bath-applied): 12±0.6%
net-charge evoked response after bath application ([3]; 1 μM bath-applied): fully abolished
average baseline net charge response after co-application [3, 4]: 68±9%
average baseline peak response after co-application [3, 4]: 72±6%

CO[C@H]1CC=C2CCN3CCC4=C(CC(=O)OC4)[C@]23C1 [DHβE, dihydro-β-erythroidine, reference compound]
blockade of residual ACh-evoked responses following tkP3BzPB bath application ([2]; 1 μM DHβE bath-applied): largely sensitive to DHβE blockade

C(#Cc1cc(C#CCCC[n+]2cccc3ccccc32)cc(C#CCCC[n+]2cccc3ccccc32)c1)CCC[n+]1cccc2ccccc21 [tPyQB, 1,3,5-tri-[5-(1-quinolinum)-pent-1-yn-1-yl]-benzene tribromide]
IC50 (rat α3β4 nAChRs): 1 ± 0.1 µM
recovery of responses to ACh alone after co-application (rat α3β4 nAChRs): recovered fully
Imax of ACh concentration-response in the presence of antagonist (rat α7 nAChRs; 300 nM tPyQB, net charge): 0.40±0.01
inhibition of 60 μM ACh-evoked responses (rat α7 nAChRs; 1 μM): completely inhibit
inhibition at 1 µM (rat α7 nAChRs; cells held at −40 mV): 83 ± 2%
inhibition at 1 µM (rat α7 nAChRs; −80 mV): 97.7 ± 0.1%
recovery of responses to ACh alone after co-application (rat α7 nAChRs): recovered fully
IC50 (rat α7 nAChRs; read-out: IC50 values, α7): 0.13 ± 0.02 µM
effect of voltage on inhibition of α7 receptors (rat α7 nAChRs): significant effect of voltage
reduction of ACh-evoked responses [1]: effectively reduced
IC50 (rat α4β2 nAChRs): 4.1 ± 1 µM
recovery of responses to ACh alone after co-application (rat α4β2 nAChRs): recovered fully

Source: patent US20130231366A1, “Use of a Novel Alpha-7 Nachr Antagonist to Suppress Pathogenic Signal Transduction in Cancer and Aids” (UNIVERSITY OF KENTUCKY RESEARCH FOUNDATION, priority 2008, published 2013)
